Measurements as given in US20240343740A1, “MACROCYCLIC GLUCAGON-LIKE PEPTIDE 1 RECEPTOR AGONISTS” (Eli Lilly and Company, priority 2021, published 2024).
Where a name gives a salt, the structure may show the parent alone. Read-outs that look alike come from different tables or passages of the source.

Key:
[1] = cc_pd bond
[2] = biological target: T1, human GLP-1R (Homo sapiens, UniProt P43220); assay: Human GLP-1 Receptor HEK293 cell cAMP assay, 104 fmol/mg GLP-1R expression density; assay type: cell-based; design: expressed in transfected cells; host or cells: HEK293 clonal cell line; conditions: HEK293 cell line with 104 fmol/mg expression density of GLP-1R; for EC50: geometric mean, read-out: EC50 nM (SEM, n), intracellular cAMP response, relative EC50; for Emax: percent of maximal response to GLP-1(7-36)NH2, arithmetic mean, read-out: Emax % (SEM, n), intracellular cAMP response
T1 sequence (P43220 24-463): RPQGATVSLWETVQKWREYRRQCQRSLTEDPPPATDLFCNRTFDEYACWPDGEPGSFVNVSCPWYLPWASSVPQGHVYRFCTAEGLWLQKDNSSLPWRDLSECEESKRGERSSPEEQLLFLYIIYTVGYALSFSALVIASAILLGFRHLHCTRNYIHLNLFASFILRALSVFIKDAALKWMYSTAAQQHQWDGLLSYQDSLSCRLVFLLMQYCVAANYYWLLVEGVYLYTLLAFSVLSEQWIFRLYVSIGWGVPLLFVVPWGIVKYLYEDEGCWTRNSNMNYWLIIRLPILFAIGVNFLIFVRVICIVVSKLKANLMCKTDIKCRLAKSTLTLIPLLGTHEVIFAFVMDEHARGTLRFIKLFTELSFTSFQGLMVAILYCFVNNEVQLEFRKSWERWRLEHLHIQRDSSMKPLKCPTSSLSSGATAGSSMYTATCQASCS
Method in brief: (§1)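 HEK293 clonal lines expressing human GLP-1R, 20-point compound curves, 30 min at 37° C in DMEM with 0.1% casein, 250 μM IBMX, 0.5% DMSO. cAMP by HTRF, converted via standard curve to % of maximal human GLP-1(7-36)NH2 response; relative EC50 and Emax from four-parameter logistic fit.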

[3] = biological target: T1, human GLP-1R; assay: Human GLP-1 Receptor HEK293 cell cAMP assay, 581 fmol/mg GLP-1R expression density; assay type: cell-based; design: expressed in transfected cells; host or cells: HEK293 clonal cell line; conditions: HEK293 cell line with 581 fmol/mg expression density of GLP-1R; for EC50: geometric mean, read-out: EC50 nM (SEM, n), intracellular cAMP response, relative EC50; for Emax: percent of maximal response to GLP-1(7-36)NH2, arithmetic mean, read-out: Emax % (SEM, n), intracellular cAMP response
Method in brief: as §1

Row | EC50 [2] | Emax [2] | EC50 [3] | Emax [3] | SMILES | also measured
1 | – | – | – | – | CCOC(=O)Cc1cc(F)c2cc1OCCOc1cc(C#N)ccc1COc1cccc-2n1 | ring closure, isolated yield ([1]; from CCOC(=O)Cc1cc(F)c(Br)cc1OCCOc1cc(C#N)ccc1COc1cccc(Br)n1, 14-membered ring, B2pin2/KOAc/Pd(dppf)Cl2, then PdCl2/XPhos/K3PO4, THF/water, 8.9 mM, 45.0 °C, 16.0 h, 2 steps): 32%
2 | – | – | – | – | CCOC(=O)Cc1cc(F)c2cc1OCCCc1cc(ccc1C#N)COc1cccc-2n1 | ring closure, isolated yield ([1]; from CCOC(=O)Cc1cc(F)c(B2OC(C)(C)C(C)(C)O2)cc1OCCCc1cc(COc2cccc(Br)n2)ccc1C#N, 15-membered ring, PdCl2(dtbpf)/K3PO4, 1,4-dioxane/water, 27.0 mM, 50.0 °C, 0.25 h): 38%
3 | – | – | – | – | CCOC(=O)Cc1cc(F)c2cc1OCCCc1cc(C#N)ccc1CNc1cccc-2n1 | ring closure, isolated yield ([1]; from CCOC(=O)Cc1cc(F)c(B2OCC(C)(C)CO2)cc1OCCCc1cc(C#N)ccc1CNc1cccc(Br)n1, 14-membered ring, PdCl2(dtbpf)/K3PO4, 1,4-dioxane/water, 43.0 mM, 70.0 °C, 2.0 h): 49%
4 | – | – | – | – | CCOC(=O)Cc1cc(F)c2cc1OCCCc1cc(C#N)ccc1COc1cccc-2n1 | ring closure, isolated yield ([1]; from CCOC(=O)Cc1cc(F)c(Br)cc1OCCCc1cc(C#N)ccc1COc1cccc(Br)n1, 14-membered ring, Me6Sn2/Pd(PPh3)4, 1,4-dioxane, 23.0 mM, 90.0 °C, 60.0 h): 47%
5 | – | – | – | – | CCOC(=O)Cc1cc(F)c2cc1CCOc1cc(C#N)ccc1COc1cccc-2n1 | ring closure, isolated yield ([1]; from CCOC(=O)Cc1cc(F)c(Br)cc1CCOc1cc(C#N)ccc1COc1cccc(Br)n1, 13-membered ring, Me6Sn2/Pd(dppf)Cl2, 1,4-dioxane, 50.0 mM, 100.0 °C, 3.0 h): 41%
6 | – | – | – | – | CCOC(=O)Cc1cc(F)c2cc1OCCCc1cc(C#N)cnc1COc1cccc-2n1 | ring closure, isolated yield ([1]; from CCOC(=O)Cc1cc(F)c(Br)cc1OCCCc1cc(C#N)cnc1COc1cccc(Br)n1, 14-membered ring, Me6Sn2/CsF/XPhos Pd G2, 1,4-dioxane, 22.0 mM, 100.0 °C, 18.0 h): 49%
7 | – | – | – | – | CCOC(=O)Cc1cc(F)c2cc1CCOCc1cc(C#N)ccc1COc1cccc-2n1 | ring closure, isolated yield ([1]; from CCOC(=O)Cc1cc(F)c(B2OC(C)(C)C(C)(C)O2)cc1CCOCc1cc(C#N)ccc1COc1cccc(Cl)n1, 14-membered ring, XPhos Pd G2/K3PO4, THF/water, 25.0 mM, 70.0 °C, 0.5 h): 34%
8 | – | – | – | – | CCOC(=O)Cc1ccc2cc1COCC(F)(F)c1cc(C#N)ccc1COc1cccc-2n1 | ring closure, isolated yield ([1]; from CCOC(=O)Cc1ccc(Br)cc1COCC(F)(F)c1cc(C#N)ccc1COc1cccc(Br)n1, 14-membered ring, B2pin2/KOAc/Pd(dppf)Cl2, then XPhos Pd G2/K3PO4, 1,4-dioxane/water, 55.0 mM, 60.0 °C, 2.0 h, 2 steps): 21%
9 | – | – | – | – | CCOC(=O)Cc1cc(F)c2cc1CCOCc1cc(ccc1Cl)COc1cccc-2n1 | ring closure, isolated yield ([1]; from CCOC(=O)Cc1cc(F)c(B2OC(C)(C)C(C)(C)O2)cc1CCOCc1cc(COc2cccc(Cl)n2)ccc1Cl, 15-membered ring, XPhos Pd G2/K3PO4, THF/water, 27.0 mM, 60.0 °C, 1.5 h): 20%
10 | – | – | – | – | COC(=O)Cc1ccc2cc1COCCc1cc(C#N)ccc1COc1ccnc-2n1 | ring closure, isolated yield ([1]; from COC(=O)Cc1ccc(B2OC(C)(C)C(C)(C)O2)cc1COCCc1cc(C#N)ccc1COc1ccnc(Cl)n1, 14-membered ring, XPhos Pd G2/K3PO4, THF/water, 36.0 mM, 50.0 °C, 6.0 h): 22%
11 | – | – | – | – | COC(=O)Cc1ccc2cc1OCCCc1cc(Cl)ccc1COc1cccc-2n1 | ring closure, isolated yield ([1]; from COC(=O)Cc1ccc(B2OC(C)(C)C(C)(C)O2)cc1OCCCc1cc(Cl)ccc1COc1cccc(Br)n1, 14-membered ring, XPhos Pd G2/K3PO4, THF/water, 9.2 mM, 40.0 °C, 15.0 h): 74%
12 | – | – | – | – | COC(=O)Cc1ccc2cc1COCCc1cc(ccc1C#N)COc1cccc-2n1 | ring closure, isolated yield ([1]; from COC(=O)Cc1ccc(B2OC(C)(C)C(C)(C)O2)cc1COCCc1cc(COc2cccc(Cl)n2)ccc1C#N, 15-membered ring, XPhos Pd(crotyl)Cl/K3PO4, THF/water, 33.0 mM, 50.0 °C, 0.83 h): 61%
13 | – | – | – | – | CCOC(=O)Cc1cc(F)c2cc1COCCc1cc(Cl)cc(F)c1COc1cccc-2n1 | ring closure, isolated yield ([1]; from CCOC(=O)Cc1cc(F)c(Br)cc1COCCc1cc(Cl)cc(F)c1COc1cccc(Cl)n1, 14-membered ring, B2pin2/KOPiv/XPhos Pd G2, then K3PO4, THF/water, 24.0 mM, 55.0 °C, 6.0 h, 2 steps): 27%
14 | – | – | – | – | CCOC(=O)Cc1cc(F)c2cc1COCc1cc(Cl)ccc1COc1cccc-2n1 | ring closure, isolated yield ([1]; from CCOC(=O)Cc1cc(F)c(Br)cc1COCc1cc(Cl)ccc1COc1cccc(Cl)n1, 13-membered ring, B2neo2/KOPiv/XPhos Pd G2, then K3PO4, THF, then THF/water, 25.0 mM, 55.0 °C, 5.25 h, 2 steps): 32%
15 | – | – | – | – | COC(=O)Cc1ccc2cc1OCCCc1cc(C#N)ccc1COc1cccc-2n1 | ring closure, isolated yield ([1]; from COC(=O)Cc1ccc(B2OC(C)(C)C(C)(C)O2)cc1OCCCc1cc(C#N)ccc1COc1cccc(Br)n1, 14-membered ring, XPhos Pd G2/K3PO4, THF/water, 57.0 mM, 45.0 °C, 2.25 h): 82%
16 | 533 nM | 73.3% | 155 nM | 92.1% | O=C(O)c1ccc2nc(Cc3ccc4cc3OCCCc3cc(-n5ccc(=O)cc5)ccc3COc3cccc-4n3)n(C[C@@H]3CCO3)c2c1 [Example 74, (S)-1-(Oxetan-2-ylmethyl)-2-((5^4-(4-oxopyridin-1(4H)-yl)-3,9-dioxa-2(2,6)-pyridina-1(1,3),5(1,2)-dibenzenacyclononaphane-1^4-yl)methyl)-1H-benzo[d]imidazole-6-carboxylic acid] | –
17 | 4.02 nM | 86.7% | 1.95 nM | 125% | COc1cc(C(=O)O)cc2c1nc(Cc1cc(C)c3cc1OCCCc1cc(C(F)(F)F)ccc1COc1cccc-3n1)n2C[C@@H]1CCO1 [Example 16, (S)-4-Methoxy-2-((1^6-methyl-5^4-(trifluoromethyl)-3,9-dioxa-2(2,6)-pyridina-1(1,3),5(1,2)-dibenzenacyclononaphane-1^4-yl)methyl)-1-(oxetan-2-ylmethyl)-1H-benzo[d]imidazole-6-carboxylic acid] | –
18 | 194 nM | 72% | 48.6 nM | 86.9% | COc1cc(C(=O)O)cc2c1nc(Cc1cc(F)c3cc1OCCCc1cc(C#N)cnc1COc1cccc-3n1)n2C[C@@H]1CCO1 [Example 43, (S)-2-((5^5-Cyano-1^6-fluoro-3,9-dioxa-2(2,6),5(2,3)-dipyridina-1(1,3)-benzenacyclononaphane-1^4-yl)methyl)-4-methoxy-1-(oxetan-2-ylmethyl)-1H-benzo[d]imidazole-6-carboxylic acid diformate salt] | –
19 | 344 nM | 83.7% | 69.3 nM | 106% | COc1cc(C(=O)O)cc2c1nc(Cc1ccc3cc1OCCCc1cc(C#N)ccc1COc1cccc-3n1)n2Cc1ncco1 [Example 23, 2-((5^4-Cyano-3,9-dioxa-2(2,6)-pyridina-1(1,3),5(1,2)-dibenzenacyclononaphane-1^4-yl)methyl)-4-methoxy-1-(oxazol-2-ylmethyl)-1H-benzo[d]imidazole-6-carboxylic acid] | –
20 | 128 nM | 82.8% | 38.1 nM | 115% | COCCOc1cc(C(=O)O)cc2c1nc(Cc1ccc3cc1COCC(F)(F)c1cc(C#N)ccc1COc1cccc-3n1)n2C[C@@H]1CCO1 [Example 50, (S)-2-((5^4-cyano-6,6-difluoro-3.8-dioxa-2(2,6)-pyridina-1(1,3),5(1,2)-dibenzenacyclonaphane-1^4-yl)methyl)-4-(2-methoxyethoxy)-1-(oxatan-2-ylmethyl)-1H-benzo[d]imidazole-6-carboxylic acid] | –
21 | 17.4 nM | 71.6% | 6.33 nM | 93.9% | COCCOc1cc(C(=O)O)cc2c1nc(Cc1cc(F)c3cc1COCc1cc(-c4ccc(=O)n(C)c4)ccc1COc1cccc-3n1)n2C[C@@H]1CCO1 [Example 75, (S)-2-((1^6-Fluoro-5^4-(1-methyl-6-oxo-1,6-dihydropyridin-3-yl)-3,7-dioxa-2(2,6)-pyridina-1(1,3),5(1,2)-dibenzenacyclooctaphane-1^4-yl)methyl)-4-(2-methoxyethoxy)-1-(oxetan-2-ylmethyl)-1H-benzo[d]imidazole-6-carboxylic acid] | –
22 | 147 nM | 88.9% | 35.3 nM | 107% | N#Cc1ccc2cc1CCCOc1cc(c(F)cc1Cc1nc3ccc(C(=O)O)cc3n1C[C@@H]1CCO1)-c1cccc(n1)OC2 [Example 10, (S)-2-((5^4-Cyano-1^6-fluoro-3,9-dioxa-2(2,6)-pyridina-1,5(1,3)-dibenzenacyclononaphane-1^4-yl)methyl)-1-(oxetan-2-ylmethyl)-1H-benzo[d]imidazole-6-carboxylic acid] | –
